# Source: the supplement of paper PMC9663587
# Key:
# Paclitaxel = compound: CC(=O)O[C@H]1C(=O)[C@@]2(C)[C@H]([C@H](OC(=O)c3ccccc3)[C@]3(O)C[C@H](OC(=O)[C@H](O)[C@@H](NC(=O)c4ccccc4)c4ccccc4)C(C)=C1C3(C)C)[C@]1(OC(C)=O)CO[C@@H]1C[C@@H]2O [Paclitaxel]
# ABT-737 = compound: CN(C)CC[C@H](CSc1ccccc1)Nc1ccc(S(=O)(=O)NC(=O)c2ccc(N3CCN(Cc4ccccc4-c4ccc(Cl)cc4)CC3)cc2)cc1[N+](=O)[O-] [ABT-737]
# Luminespib/NVP-AUY922 = compound: CCNC(=O)c1noc(-c2cc(C(C)C)c(O)cc2O)c1-c1ccc(CN2CCOCC2)cc1 [Luminespib/NVP-AUY922]
# BSJ-01-175 = compound: CN(C)C/C=C/C(=O)Nc1ccc(O[C@@H]2CCC[C@@H](Nc3ncc(Cl)c(-c4c[nH]c5ccccc45)n3)C2)cc1 [BSJ-01-175]
# Flavopiridol [1] = compound: T1, CN1CC[C@H](c2c(O)cc(O)c3c(=O)cc(-c4ccccc4Cl)oc23)[C@H](O)C1 [Flavopiridol]
# Olaparib/AZD2281 = compound: O=C(c1cc(Cc2n[nH]c(=O)c3ccccc23)ccc1F)N1CCN(C(=O)C2CC2)CC1 [Olaparib/AZD2281]
# Doxorubicin = compound: COc1cccc2c1C(=O)c1c(O)c3c(c(O)c1C2=O)C[C@@](O)(C(=O)CO)C[C@@H]3O[C@H]1C[C@H](N)[C@H](O)[C@H](C)O1 [Doxorubicin]
# Ipatasertib/GDC0068 = compound: CC(C)NC[C@@H](C(=O)N1CCN(c2ncnc3c2[C@H](C)C[C@H]3O)CC1)c1ccc(Cl)cc1 [Ipatasertib/GDC0068]
# Taselisib/GDC0032 = compound: Cc1nc(-c2cn3c(n2)-c2ccc(-c4cnn(C(C)(C)C(N)=O)c4)cc2OCC3)n(C(C)C)n1 [Taselisib/GDC0032]
# BSJ-03-123 = compound: CC(=O)c1c(C)c2cnc(Nc3ccc(N4CCN(CCOCCOCCOCCNC(=O)COc5cccc6c5C(=O)N(C5CCC(=O)NC5=O)C6=O)CC4)cn3)nc2n(C2CCCC2)c1=O [BSJ-03-123]; test: GR value, 72 h; higher = faster growth (1 = untreated, <0 = killing);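 also: breast cancer and non-malignant breast epithelial lines, nine half-log doses, viable cells counted by Hoechst and LIVE/DEAD dye imaging versus time-zero plates and DMSO controls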
# YKL-5-124 = compound: C=CC(=O)Nc1ccc(C(=O)Nc2[nH]nc3c2CN(C(=O)N[C@H](CN(C)C)c2ccccc2)C3(C)C)cc1 [YKL-5-124]; test: as above
# [2] = compound: CC(=O)c1c(C)c2cnc(Nc3ccc(N4CCNCC4)cn3)nc2n(C2CCCC2)c1=O; test: as above
# THZ531 = compound: CN(C)C/C=C/C(=O)Nc1ccc(C(=O)N2CCC[C@@H](Nc3ncc(Cl)c(-c4c[nH]c5ccccc45)n3)C2)cc1 [THZ531]; test: as above
# Flavopiridol [3] = compound: T1, Flavopiridol; test: as above
# [4] = compound: CCN1CCN(Cc2ccc(Nc3ncc(F)c(-c4cc(F)c5nc(C)n(C(C)C)c5c4)n3)nc2)CC1; test: as above
# LEE011/Ribociclib = compound: CN(C)C(=O)c1cc2cnc(Nc3ccc(N4CCNCC4)cn3)nc2n1C1CCCC1 [LEE011/Ribociclib]; test: as above
# [5] = compound: CCc1cnn2c(NCc3ccc[n+]([O-])c3)cc(N3CCCC[C@H]3CCO)nc12; test: as above
# 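For GR50, 72 h in this document: breast cancer and non-malignant breast epithelial cell lines, Deep Dye Drop or Dye Drop imaging, nine half-log doses, GR normalized to time-zero plates and DMSO-only controls.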
cell line,measurement,setting,value
HCC1806,"GR50, 72 h",Paclitaxel,0.00143 µM
same,"GR50, 72 h",ABT-737,> 10 µM
same,"GR50, 72 h",Luminespib/NVP-AUY922,0.0109 µM
same,"GR50, 72 h",BSJ-01-175,0.092 µM
same,"GR50, 72 h",Flavopiridol [1],0.168 µM
same,"GR50, 72 h",Olaparib/AZD2281,> 10 µM
same,"GR50, 72 h",Doxorubicin,0.0159 µM
same,"GR50, 72 h",Ipatasertib/GDC0068,> 10 µM
same,"GR50, 72 h",Taselisib/GDC0032,1.55 µM
same,GR value,BSJ-03-123; 0.001 µM,1 GR
same,GR value,BSJ-03-123; 0.003162 µM,0.98 GR
same,GR value,BSJ-03-123; 0.01 µM,0.958 GR
same,GR value,BSJ-03-123; 0.03162 µM,0.963 GR
same,GR value,BSJ-03-123; 0.1 µM,0.902 GR
same,GR value,BSJ-03-123; 0.3162 µM,0.831 GR
same,GR value,BSJ-03-123; 1 µM,0.648 GR
same,GR value,BSJ-03-123; 3.162 µM,0.566 GR
same,GR value,BSJ-03-123; 10 µM,-0.0555 GR
same,GR value,YKL-5-124; 0.001 µM,0.386 GR
same,GR value,YKL-5-124; 0.003162 µM,0.232 GR
same,GR value,YKL-5-124; 0.01 µM,0.105 GR
same,GR value,YKL-5-124; 0.03162 µM,0.0295 GR
same,GR value,YKL-5-124; 0.1 µM,-0.0411 GR
same,GR value,YKL-5-124; 0.3162 µM,-0.075 GR
same,GR value,YKL-5-124; 1 µM,-0.155 GR
same,GR value,YKL-5-124; 3.162 µM,-0.19 GR
same,GR value,YKL-5-124; 10 µM,-0.466 GR
same,GR value,[2]; 0.0003162 µM,1.07 GR
same,GR value,[2]; 0.001 µM,1.02 GR
same,GR value,[2]; 0.003162 µM,0.939 GR
same,GR value,[2]; 0.01 µM,0.965 GR
same,GR value,[2]; 0.03162 µM,0.851 GR
same,GR value,[2]; 0.1 µM,0.695 GR
same,GR value,[2]; 0.3162 µM,0.739 GR
same,GR value,[2]; 1 µM,0.625 GR
same,GR value,[2]; 3.162 µM,0.771 GR
same,GR value,THZ531; 0.0001 µM,0.976 GR
same,GR value,THZ531; 0.0003162 µM,0.999 GR
same,GR value,THZ531; 0.001 µM,1.04 GR
same,GR value,THZ531; 0.003162 µM,1.01 GR
same,GR value,THZ531; 0.01 µM,1.07 GR
same,GR value,THZ531; 0.03162 µM,1 GR
same,GR value,THZ531; 0.1 µM,0.992 GR
same,GR value,THZ531; 0.3162 µM,0.659 GR
same,GR value,THZ531; 1 µM,-0.489 GR
same,GR value,Flavopiridol [3]; 0.0001 µM,0.956 GR
same,GR value,Flavopiridol [3]; 0.0003162 µM,1.03 GR
same,GR value,Flavopiridol [3]; 0.001 µM,1.04 GR
same,GR value,Flavopiridol [3]; 0.003162 µM,0.878 GR
same,GR value,Flavopiridol [3]; 0.01 µM,1.03 GR
same,GR value,Flavopiridol [3]; 0.03162 µM,0.926 GR
same,GR value,Flavopiridol [3]; 0.1 µM,0.659 GR
same,GR value,Flavopiridol [3]; 0.3162 µM,0.199 GR
same,GR value,Flavopiridol [3]; 1 µM,-0.565 GR
same,GR value,[4]; 0.001 µM,0.986 GR
same,GR value,[4]; 0.003162 µM,0.943 GR
same,GR value,[4]; 0.01 µM,0.894 GR
same,GR value,[4]; 0.03162 µM,0.779 GR
same,GR value,[4]; 0.1 µM,0.75 GR
same,GR value,[4]; 0.3162 µM,0.667 GR
same,GR value,[4]; 1 µM,0.447 GR
same,GR value,[4]; 3.162 µM,0.129 GR
same,GR value,[4]; 10 µM,-0.456 GR
same,GR value,LEE011/Ribociclib; 0.001 µM,0.919 GR
same,GR value,LEE011/Ribociclib; 0.003162 µM,0.948 GR
same,GR value,LEE011/Ribociclib; 0.01 µM,0.884 GR
same,GR value,LEE011/Ribociclib; 0.03162 µM,0.886 GR
same,GR value,LEE011/Ribociclib; 0.1 µM,0.876 GR
same,GR value,LEE011/Ribociclib; 0.3162 µM,0.824 GR
same,GR value,LEE011/Ribociclib; 1 µM,0.796 GR
same,GR value,LEE011/Ribociclib; 3.162 µM,0.801 GR
same,GR value,LEE011/Ribociclib; 10 µM,0.699 GR
same,GR value,[5]; 0.0001 µM,1.04 GR
same,GR value,[5]; 0.0003162 µM,1.05 GR
same,GR value,[5]; 0.001 µM,1 GR
same,GR value,[5]; 0.003162 µM,1.01 GR
same,GR value,[5]; 0.01 µM,0.798 GR
same,GR value,[5]; 0.03162 µM,-0.315 GR
same,GR value,[5]; 0.1 µM,-0.472 GR
same,GR value,[5]; 0.3162 µM,-0.465 GR
same,GR value,[5]; 1 µM,-0.45 GR
MDAMB468,"GR50, 72 h",Paclitaxel,0.00135 µM
same,"GR50, 72 h",ABT-737,6.03 µM
same,"GR50, 72 h",Luminespib/NVP-AUY922,0.00483 µM
same,"GR50, 72 h",BSJ-01-175,0.00931 µM
same,"GR50, 72 h",Flavopiridol [1],0.173 µM
same,"GR50, 72 h",Olaparib/AZD2281,7.92 µM
same,"GR50, 72 h",Doxorubicin,0.00542 µM
same,"GR50, 72 h",Ipatasertib/GDC0068,2.36 µM
same,"GR50, 72 h",Taselisib/GDC0032,2.35 µM
same,GR value,BSJ-03-123; 0.001 µM,1 GR
same,GR value,BSJ-03-123; 0.003162 µM,0.923 GR
same,GR value,BSJ-03-123; 0.01 µM,0.902 GR
same,GR value,BSJ-03-123; 0.03162 µM,0.806 GR
same,GR value,BSJ-03-123; 0.1 µM,0.91 GR
same,GR value,BSJ-03-123; 0.3162 µM,0.771 GR
same,GR value,BSJ-03-123; 1 µM,0.636 GR
same,GR value,BSJ-03-123; 3.162 µM,0.476 GR
same,GR value,BSJ-03-123; 10 µM,-0.0278 GR
same,GR value,YKL-5-124; 0.001 µM,0.23 GR
same,GR value,YKL-5-124; 0.003162 µM,0.077 GR
same,GR value,YKL-5-124; 0.01 µM,0 GR
same,GR value,YKL-5-124; 0.03162 µM,-0.101 GR
same,GR value,YKL-5-124; 0.1 µM,-0.149 GR
same,GR value,YKL-5-124; 0.3162 µM,-0.177 GR
same,GR value,YKL-5-124; 1 µM,-0.217 GR
same,GR value,YKL-5-124; 3.162 µM,-0.309 GR
same,GR value,YKL-5-124; 10 µM,-0.549 GR
same,GR value,[2]; 0.0003162 µM,0.963 GR
same,GR value,[2]; 0.001 µM,1.02 GR
same,GR value,[2]; 0.003162 µM,1.02 GR
same,GR value,[2]; 0.01 µM,1.05 GR
same,GR value,[2]; 0.03162 µM,1.02 GR
same,GR value,[2]; 0.1 µM,1.01 GR
same,GR value,[2]; 0.3162 µM,1.06 GR
same,GR value,[2]; 1 µM,1.05 GR
same,GR value,[2]; 3.162 µM,1.05 GR
same,GR value,THZ531; 0.0001 µM,1.02 GR
same,GR value,THZ531; 0.0003162 µM,1 GR
same,GR value,THZ531; 0.001 µM,0.926 GR
same,GR value,THZ531; 0.003162 µM,1.04 GR
same,GR value,THZ531; 0.01 µM,0.906 GR
same,GR value,THZ531; 0.03162 µM,0.636 GR
same,GR value,THZ531; 0.1 µM,0.082 GR
same,GR value,THZ531; 0.3162 µM,-0.19 GR
same,GR value,THZ531; 1 µM,-0.188 GR
same,GR value,Flavopiridol [3]; 0.0001 µM,0.989 GR
same,GR value,Flavopiridol [3]; 0.0003162 µM,0.962 GR
same,GR value,Flavopiridol [3]; 0.001 µM,0.929 GR
same,GR value,Flavopiridol [3]; 0.003162 µM,0.953 GR
same,GR value,Flavopiridol [3]; 0.01 µM,0.931 GR
same,GR value,Flavopiridol [3]; 0.03162 µM,0.898 GR
same,GR value,Flavopiridol [3]; 0.1 µM,0.662 GR
same,GR value,Flavopiridol [3]; 0.3162 µM,0.213 GR
same,GR value,Flavopiridol [3]; 1 µM,-0.426 GR
same,GR value,[4]; 0.001 µM,0.94 GR
same,GR value,[4]; 0.003162 µM,0.966 GR
same,GR value,[4]; 0.01 µM,0.979 GR
same,GR value,[4]; 0.03162 µM,1.04 GR
same,GR value,[4]; 0.1 µM,1.06 GR
same,GR value,[4]; 0.3162 µM,1.01 GR
same,GR value,[4]; 1 µM,0.811 GR
same,GR value,[4]; 3.162 µM,0.321 GR
same,GR value,[4]; 10 µM,-0.34 GR
same,GR value,LEE011/Ribociclib; 0.001 µM,0.985 GR
same,GR value,LEE011/Ribociclib; 0.003162 µM,1.04 GR
same,GR value,LEE011/Ribociclib; 0.01 µM,0.951 GR
same,GR value,LEE011/Ribociclib; 0.03162 µM,1.01 GR
same,GR value,LEE011/Ribociclib; 0.1 µM,1.05 GR
same,GR value,LEE011/Ribociclib; 0.3162 µM,0.965 GR
same,GR value,LEE011/Ribociclib; 1 µM,0.935 GR
same,GR value,LEE011/Ribociclib; 3.162 µM,1 GR
same,GR value,LEE011/Ribociclib; 10 µM,1.02 GR
same,GR value,[5]; 0.0001 µM,0.988 GR
same,GR value,[5]; 0.0003162 µM,1.01 GR
same,GR value,[5]; 0.001 µM,0.985 GR
same,GR value,[5]; 0.003162 µM,1.03 GR
same,GR value,[5]; 0.01 µM,0.863 GR
same,GR value,[5]; 0.03162 µM,-0.106 GR
same,GR value,[5]; 0.1 µM,-0.255 GR
same,GR value,[5]; 0.3162 µM,-0.339 GR
same,GR value,[5]; 1 µM,-0.412 GR
